The record followed here is article PMC11089510 (Journal of Medicinal Chemistry, 2024).

Where two headings read alike, the source gives them in different places.

The target in one data set is T1, recombinant human NUDT14 (Homo sapiens, UniProt O95848).
T1 sequence (O95848 1-222): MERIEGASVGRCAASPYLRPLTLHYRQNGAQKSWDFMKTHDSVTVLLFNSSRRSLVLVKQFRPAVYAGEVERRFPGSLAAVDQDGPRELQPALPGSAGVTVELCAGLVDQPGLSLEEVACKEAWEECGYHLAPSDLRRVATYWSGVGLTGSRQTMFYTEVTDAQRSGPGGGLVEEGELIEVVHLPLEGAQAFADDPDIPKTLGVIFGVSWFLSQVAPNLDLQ
In words: NUDT14 catalytic assay (AMP-Glo). The data set is classed as biochemical. Here is the method:
(§1) Inhibition activities of the compounds were determined using AMP-Glo system (Promega). The compounds were diluted from 50 μM to 0 μM in a final reaction containing 20 mM HEPES, 100 mM NaCl, 0.5 mM TCEP, 1 mM MgCl2, and 0.1% BSA, pH 7.4. […] The final DMSO concentration was 1% for all reactions. […] The reactions were further incubated with 4 μL of the detection solution for 1 h at rt. Luminescence signals were then measured in a PHERAstar FSX plate reader. Experiments were done in triplicate sets, and data were analyzed by GraphPad Prism 9. Inhibitor dose–response data were normalized to reactions containing vehicle only (1% v/v DMSO, 100% activity) and reactions containing 500 nM TH5427 (6) (1% v/v DMSO, 0% activity). Data are represented as the mean ± SD of two independent biological replicates.

The target in data set [1] is T2, NUDT5 (Homo sapiens, UniProt Q9UKK9). In words: NUDT5 catalytic assay (AMP-Glo). The data set is classed as biochemical. Particulars: for NUDT5 inhibition: concentrations of up to 50 μM; for NUDT5 IC50: supplementary CSV. As for the experimental part:
as §1

The next data set relates to BT-474 cells. As to the kind of experiment: Cell viability assay (CellTiter-Glo). The data set is classed as cell-based. The note with it: Homo sapiens, 72 h of incubation. As for the experimental part:
BT-474 cells were cultivated in DMEM containing 10% FBS at 37 °C and 5% CO2. […] Cells were trypsinized, counted, and diluted to 25,000 cells/mL in culture medium. 40 μL of cell suspension was seeded to each well, and plates were sealed with a breathable film and incubated for 72 h. Cell viability was determined using the CellTiter-Glo reagent following the manufacturer’s instructions (Promega). Luminescence signals were measured in a PHERAstar FS or FSX and analyzed by GraphPad Prism (v.9 or v.10). Data were normalized to DMSO.

A further data set deals with T3, NUDT15 (Homo sapiens, UniProt Q9NV35).
T3 sequence (Q9NV35 1-164): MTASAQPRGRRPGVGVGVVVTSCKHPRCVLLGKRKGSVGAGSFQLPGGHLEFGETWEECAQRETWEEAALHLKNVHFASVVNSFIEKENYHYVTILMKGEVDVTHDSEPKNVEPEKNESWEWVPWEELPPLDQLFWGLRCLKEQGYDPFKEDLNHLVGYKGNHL
In words: biochemical.

For another data set, the target named is NUDT16 (Homo sapiens, UniProt Q96DE0). As to the kind of experiment: biochemical.
NUDT16, sequence (Q96DE0 whole entry): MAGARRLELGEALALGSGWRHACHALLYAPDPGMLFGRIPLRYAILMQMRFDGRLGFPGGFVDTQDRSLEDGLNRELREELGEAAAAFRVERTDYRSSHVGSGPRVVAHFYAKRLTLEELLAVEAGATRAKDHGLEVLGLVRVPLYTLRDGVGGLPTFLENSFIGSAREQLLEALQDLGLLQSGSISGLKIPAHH
The next data set addresses NUDT1 (Homo sapiens, UniProt P36639). In words: biochemical.
A further data set deals with NUDT7 (Homo sapiens, UniProt P0C024). In words: biochemical.
NUDT7, sequence (P0C024 whole entry): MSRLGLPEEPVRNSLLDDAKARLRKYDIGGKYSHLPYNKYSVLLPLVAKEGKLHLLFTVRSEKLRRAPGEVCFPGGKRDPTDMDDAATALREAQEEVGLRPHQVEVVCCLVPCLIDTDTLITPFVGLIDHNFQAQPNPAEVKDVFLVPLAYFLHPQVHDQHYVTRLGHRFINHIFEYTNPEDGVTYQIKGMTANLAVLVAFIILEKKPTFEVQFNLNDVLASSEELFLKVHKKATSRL
For the next data set, the target named is T4, NUDT9 (Homo sapiens, UniProt Q9BW91).
T4 sequence (Q9BW91 1-350): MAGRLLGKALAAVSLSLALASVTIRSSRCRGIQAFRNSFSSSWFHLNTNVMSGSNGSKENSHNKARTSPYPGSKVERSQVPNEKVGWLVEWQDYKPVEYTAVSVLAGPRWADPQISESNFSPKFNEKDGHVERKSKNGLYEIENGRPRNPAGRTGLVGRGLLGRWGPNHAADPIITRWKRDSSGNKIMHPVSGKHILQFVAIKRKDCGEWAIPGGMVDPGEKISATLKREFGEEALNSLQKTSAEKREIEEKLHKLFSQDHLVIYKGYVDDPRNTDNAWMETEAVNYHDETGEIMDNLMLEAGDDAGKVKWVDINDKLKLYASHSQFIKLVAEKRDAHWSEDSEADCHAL
In words: biochemical.

Another data set concerns the target NUDT16L1 (Homo sapiens, UniProt Q9BRJ7). In words: biochemical.
For the next data set, the target named is T5, NUDT18 (Homo sapiens, UniProt Q6ZVK8).
T5 sequence (Q6ZVK8 1-323): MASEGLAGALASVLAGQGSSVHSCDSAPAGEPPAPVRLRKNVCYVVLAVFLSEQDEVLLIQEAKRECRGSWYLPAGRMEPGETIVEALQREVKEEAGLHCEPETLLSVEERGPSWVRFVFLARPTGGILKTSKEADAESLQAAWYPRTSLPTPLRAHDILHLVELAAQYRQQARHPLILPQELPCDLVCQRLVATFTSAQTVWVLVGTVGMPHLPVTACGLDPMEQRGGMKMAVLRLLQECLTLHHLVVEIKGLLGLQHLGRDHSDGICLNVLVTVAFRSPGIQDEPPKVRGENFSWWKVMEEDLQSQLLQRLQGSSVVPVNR
In words: biochemical.

The next data set has as its target NUDT12 (Homo sapiens, UniProt Q9BQG2). In words: biochemical.
A further data set deals with T6, NUDT17 (Homo sapiens, UniProt P0C025).
T6 sequence (P0C025 1-328): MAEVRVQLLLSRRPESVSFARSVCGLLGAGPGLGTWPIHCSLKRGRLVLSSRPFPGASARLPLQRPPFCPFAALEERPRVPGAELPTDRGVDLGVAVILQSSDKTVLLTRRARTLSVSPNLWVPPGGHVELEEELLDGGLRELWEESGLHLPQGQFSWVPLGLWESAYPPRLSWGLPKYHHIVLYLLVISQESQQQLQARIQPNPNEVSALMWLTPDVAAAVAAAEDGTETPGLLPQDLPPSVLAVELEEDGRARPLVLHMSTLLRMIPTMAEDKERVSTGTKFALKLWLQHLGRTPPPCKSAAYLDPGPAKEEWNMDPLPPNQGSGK
In words: biochemical.

Data set [2] addresses T2, NUDT5. As to the kind of experiment: biochemical. Set-up: 6xHis tag followed by TEV site (N, cleaved yes); made in house; host or cells: Escherichia coli (DE3).
The target in data set [3] is T7, purified human NUDT14 protein (Homo sapiens, UniProt O95848).
T7 construct: 6xHis tag followed by TEV site (N, cleaved yes); made in house; host or cells: Escherichia coli (DE3)
T7 sequence (O95848 1-222): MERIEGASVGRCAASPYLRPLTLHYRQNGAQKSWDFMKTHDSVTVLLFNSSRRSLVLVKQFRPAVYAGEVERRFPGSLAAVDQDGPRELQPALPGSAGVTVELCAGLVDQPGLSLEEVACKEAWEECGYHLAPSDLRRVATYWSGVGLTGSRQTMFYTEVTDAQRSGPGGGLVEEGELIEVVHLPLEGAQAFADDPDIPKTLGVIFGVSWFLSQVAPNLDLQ
In words: biochemical.

Data set [4] addresses NanoLuc-NUDT5 in HEK293 cells (Homo sapiens, UniProt Q9UKK9). In words: NUDT5 live-cell NanoBRET target engagement assay. The data set is classed as cell-based. Particulars: 2.5 nM CBH-004 tracer, 2 h. Here is the method:
Donor and acceptor signals were measured in a PHERAstar FSX or FS plate reader and analyzed by GraphPad Prism (v.9 or v.10). […] Data were then normalized to DMSO.

Data set [5] deals with HiBiT-NUDT14 in intact HEK293 cells (Homo sapiens, UniProt O95848). In words: HiBiT-NUDT14 cellular thermal shift assay (CETSA). The data set is classed as cell-based.
Experimental: The Nano-Glo HiBiT lytic detection system was used following the manufacturer’s instructions (Promega). In brief, 400,000 HEK293 cells/mL were reverse-transfected with N-terminal HiBiT tagged NUDT14 using FuGENE transfection reagent (Promega). After 24 h of incubation, cells were trypsinized and resuspended at 400,000 cells/mL in assay medium. The cells were divided into compound and untreated (DMSO) groups and treated accordingly. Ten μL of cells were seeded into each well in a 384-well white PCR plate and incubated for 1 h. After incubation, the samples were heated in a PCR thermocycler at the desired temperature gradient. The plate was allowed to stand for 5 min at rt, and 10 μL of Nano-Glo HiBiT lytic mix was added into each well. The signals were measured in a PHERAstar FSX and analyzed by GraphPad Prism (v.9 or v.10).
The target of the next data set is endogenous NUDT5 (Homo sapiens, UniProt Q9UKK9). As to the kind of experiment: Affinity pull-down with Western blot for NUDT5. The data set is classed as binding. Particulars: affinity matrix, cell lysate.
Data set [6] concerns the molecule itself. As to the kind of experiment: crystal structure; NUDT14 (20 mg/mL) cocrystallised with compound 9 at a molar ratio of 1:5; 0.2 M MgCl2, 0.1 M bis-tris pH 6.5, 25% PEG3350; sitting drop, 4 °C; dimer of chains A and B.
Setting [7] is: 1 nM NUDT14, 10 μM ADPr, 1 h, rt.
Where [8] appears, read: read-out: NUDT5 IC50, AMP-Glo, 1 nM NUDT5, 10 μM ADPr, 20 min, rt.

NUDT16L1, sequence (Q9BRJ7 whole entry): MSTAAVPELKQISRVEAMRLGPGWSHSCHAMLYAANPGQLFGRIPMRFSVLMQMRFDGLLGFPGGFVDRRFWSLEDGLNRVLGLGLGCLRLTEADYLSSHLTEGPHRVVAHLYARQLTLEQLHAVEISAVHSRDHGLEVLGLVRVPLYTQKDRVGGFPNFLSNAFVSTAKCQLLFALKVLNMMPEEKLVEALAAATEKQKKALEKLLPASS
NUDT12, sequence (Q9BQG2 whole entry): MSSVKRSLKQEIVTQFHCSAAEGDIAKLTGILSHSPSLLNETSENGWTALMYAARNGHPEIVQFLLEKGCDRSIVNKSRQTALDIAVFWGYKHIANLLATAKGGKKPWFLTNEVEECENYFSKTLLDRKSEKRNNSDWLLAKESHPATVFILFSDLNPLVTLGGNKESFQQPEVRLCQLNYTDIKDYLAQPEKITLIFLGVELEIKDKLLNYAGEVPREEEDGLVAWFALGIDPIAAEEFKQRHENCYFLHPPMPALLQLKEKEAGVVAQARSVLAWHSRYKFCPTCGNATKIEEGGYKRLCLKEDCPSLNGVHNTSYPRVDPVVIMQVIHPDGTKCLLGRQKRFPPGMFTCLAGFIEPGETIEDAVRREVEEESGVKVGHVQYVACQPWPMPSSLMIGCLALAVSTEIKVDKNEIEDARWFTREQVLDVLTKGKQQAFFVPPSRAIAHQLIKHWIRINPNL
Experimental for endogenous NUDT5: When reaching about 80% confluency, cells were harvested, washed with PBS, and frozen at −80 °C. Lysates were generated by adding 3× pellet volume of Buffer A (50 mM tris pH 7.5, 0.8% v/v NP-40, 5% v/v glycerol, 1.5 mM MgCl2, 100 mM NaCl, 25 mM NaF, 1 mM Na3VO4, 1 mM PMSF, 1 mM DTT, 10 μg/mL TLCK, 1 μg/mL Leupeptin, 1 μg/mL Aprotinin, 1 μg/mL soybean trypsin) supplemented with 1 μL/mL of benzonase. To facilitate lysis, crude lysate was drawn 10 times with a needle and incubated for 30 min on ice before clearing by centrifugation.
Affinity matrices were washed 4 times with 1 mL Buffer A, and proteins were eluted 2× with 50 μL of 2× Laemmli buffer containing 25 mM DTT in PBS for 5 min at 95 °C.

On to `C=CC(=O)N1CCC[C@@H](n2nc(-c3ccc(Oc4ccccc4)cc3)c3c(N)ncnc32)C1` [Compound 1, ibrutinib, reference compound], for which the half-maximal inhibitory concentration (IC50) on recombinant human NUDT14 (setting [7]) stood at 990 ± 110 nM; at NUDT5 [1] (setting [8]) it was 837 ± 329 nM; in the data set with BT-474 cells it was 27 ± 11 nM.
Regarding `C=CC(=O)N1CCC[C@@H](n2nc(-c3ccc(Oc4ccccc4)cc3)c3c(N)ncnc32)C1` [Compound 1, ibrutinib], the Kd on NUDT15 is more than 100000 nM; at NUDT16, more than 100000 nM; on NUDT1, 3500 ± 280 nM; on NUDT7, more than 100000 nM; on NUDT9, more than 100000 nM; at NUDT16L1, more than 100000 nM. The Kd is more than 100000 nM on NUDT18; more than 100000 nM on NUDT12; more than 100000 nM on NUDT17; 209 ± 62 nM at NUDT5 [2]; 1900 ± 500 nM in data set [3].
Consider `CC#CC(=O)N1CCC[C@H]1c1nc(-c2ccc(C(=O)Nc3ccccn3)cc2)c2c(N)nccn12` [Compound 2, acalabrutinib, reference compound], for which the NUDT5 inhibition result on NUDT5 [1] is given as “did not show any inhibition”. On NUDT5 [1] (AMP-Glo), the “NUDT5 IC50” value is “not active”.
For `CC#CC(=O)N[C@H]1CCCN(c2c(F)cc(C(N)=O)c3[nH]c(C)c(C)c23)C1` [Compound 3, branebrutinib, reference compound], the NUDT5 inhibition entry on NUDT5 [1] was “did not show any inhibition”. The “NUDT5 IC50” value on NUDT5 [1] (AMP-Glo) is listed as “not active”.
In turn, `Cn1c(=O)c2c(nc(N3CCNCC3)n2Cc2nnc(-c3ccc(Cl)c(Cl)c3)o2)n(C)c1=O` [Compound 6, TH5427] had an EC50 in data set [4] of 4 ± 1 nM. The “NUDT14 stabilisation compared to DMSO” value in [5] is on record as “does not stabilise NUDT14”.
As to `Cn1c(=O)c2c(nc(N3CCN(CCCCN)CC3)n2Cc2nnc(-c3ccc(Cl)c(Cl)c3)o2)n(C)c1=O.O=C(O)C(F)(F)F` [Compound 7, 4-(4-(7-((5-(3,4-Dichlorophenyl)-1,3,4-oxadiazol-2-yl)methyl)-1,3-dimethyl-2,6-dioxo-2,3,6,7-tetrahydro-1H-purin-8-yl)piperazin-1-yl)butan-1-aminium Trifluoroacetate], the “binding to endogenous NUDT5 (pull-down, Western blot)” value at endogenous NUDT5 is on record as “retained binding”.
As for `Cn1nc(-c2ccc(Oc3ccccc3)cc2)c2c(N)ncnc21` [Compound 10, 1-Methyl-3-(4-phenoxyphenyl)-1H-pyrazolo[3,4-d]pyrimidin-4-amine], the IC50 at recombinant human NUDT14 (setting [7]) came to 263 ± 31 nM.
`Nc1ncnc2[nH]nc(-c3ccc(Oc4ccccc4)cc3)c12` [Compound 11, 3-(4-Phenoxyphenyl)-1H-pyrazolo[3,4-d]pyrimidin-4-amine]: the half-inhibitory concentration (IC50) on recombinant human NUDT14 (setting [7]) is 519 ± 84 nM.
`C=CC(=O)N1CC=C(c2nn(C3CCN(C)CC3)c3ncnc(N)c23)CC1` [Compound 12, 1-(4-(4-Amino-1-(1-methylpiperidin-4-yl)-1H-pyrazolo[3,4-d]pyrimidin-3-yl)-3,6-dihydropyridin-1(2H)-yl)prop-2-en-1-one]: the IC50 on recombinant human NUDT14 (setting [7]) and at NUDT5 [1] (setting [8]) was more than 50000 nM each time. Also, at recombinant human NUDT14 (supplementary CSV), the “NUDT14 IC50” value was “not active”. Moreover, the “NUDT5 IC50” value on NUDT5 [1] (AMP-Glo) is reported as “not active”.
As to `C=CC(=O)N1CCC=C(c2nn(C3CCN(C)CC3)c3ncnc(N)c23)C1` [Compound 13, 1-(5-(4-Amino-1-(1-methylpiperidin-4-yl)-1H-pyrazolo[3,4-d]pyrimidin-3-yl)-3,6-dihydropyridin-1(2H)-yl)prop-2-en-1-one], the values for the concentration for half-maximal inhibition (IC50) on recombinant human NUDT14 (setting [7]) and against NUDT5 [1] were 3720 ± 190 nM and more than 50000 nM, respectively. The “NUDT5 IC50” value at NUDT5 [1] (AMP-Glo) is listed as “not active”.
For the molecule `C=CC(=O)NCc1ccc(-c2nn(C3CCN(C)CC3)c3ncnc(N)c23)cc1` [Compound 14, N-(4-(4-Amino-1-(1-methylpiperidin-4-yl)-1H-pyrazolo[3,4-d]pyrimidin-3-yl)benzyl)acrylamide], the half-maximal inhibitory concentration (IC50) at recombinant human NUDT14 (setting [7]) is 1640 ± 140 nM.
In the case of `C=CC(=O)N1CCC(c2nn(C3CCN(C)CC3)c3ncnc(N)c23)CC1` [Compound 15, 1-(4-(4-Amino-1-(1-methylpiperidin-4-yl)-1H-pyrazolo[3,4-d]pyrimidin-3-yl)piperidin-1-yl)prop-2-en-1-one], at recombinant human NUDT14 (setting [7]), the 50% inhibitory concentration (IC50) is more than 50000 nM and the “NUDT14 IC50” value is “inactive”. At NUDT5 [1], the IC50 was more than 50000 nM. Also, the “NUDT5 IC50” value on NUDT5 [1] (AMP-Glo) was “not active”.

B1: NUDT14 (enzyme, human, UniProt O95848 1-222, looked up)
chain: MERIEGASVGRCAASPYLRPLTLHYRQNGAQKSWDFMKTHDSVTVLLFNSSRRSLVLVKQFRPAVYAGEVERRFPGSLAAVDQDGPRELQPALPGSAGVTVELCAGLVDQPGLSLEEVACKEAWEECGYHLAPSDLRRVATYWSGVGLTGSRQTMFYTEVTDAQRSGPGGGLVEEGELIEVVHLPLEGAQAFADDPDIPKTLGVIFGVSWFLSQVAPNLDLQ
Turning to B1, the “stoichiometry N” value in data set [6] amounted to 2.
